Molecules are shown by their SMILES.

The experiment has as its target T1, human CCR6 (Homo sapiens, UniProt P51684).
T1 construct: expressed in transfected cells; host or cells: HEK-293
T1 sequence (P51684 1-374): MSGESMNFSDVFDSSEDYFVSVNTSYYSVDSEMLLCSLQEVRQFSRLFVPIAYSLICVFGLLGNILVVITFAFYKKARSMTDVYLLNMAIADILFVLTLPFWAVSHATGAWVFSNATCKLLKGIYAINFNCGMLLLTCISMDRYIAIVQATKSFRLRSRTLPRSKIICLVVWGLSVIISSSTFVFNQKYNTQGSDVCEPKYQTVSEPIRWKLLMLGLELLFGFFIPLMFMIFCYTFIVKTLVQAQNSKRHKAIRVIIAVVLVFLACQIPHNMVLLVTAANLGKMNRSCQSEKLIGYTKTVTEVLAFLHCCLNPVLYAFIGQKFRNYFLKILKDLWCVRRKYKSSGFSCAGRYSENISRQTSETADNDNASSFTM
The experiment is described as follows: FLIPR assay (inhibition of CCL20-induced calcium signal). The class given is cell-based. The following applies: HEK-293 cells expressing human CCR6; mean values where determined several times; read-out: FLIPR IC50. An outline of the steps:
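IC50 values come from baseline-corrected peak calcium fluorescence after agonist. The agonist was CCL20 at 10 nM final, added to engineered human CCR6 HEK-293 cells following a 30-min, room-temperature, dark preincubation with serially diluted compound. Readings were taken in a fluorometric imaging plate reader.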
As for `COCC#Cc1cncc(C(O)(c2ccc(C(C)C)cc2)C2(C)CN(C)C2)c1` (centres unmarked) [Example 13, (1,3-Dimethyl-azetidin-3-yl)-(4-isopropyl-phenyl)-[5-(3-methoxy-prop-1-ynyl)-pyridin-3-yl]-methanol], the IC50 (usually the concentration at which inhibition is half-maximal) is 0.0435 µM.

As to `COC1(c2nc(-c3cncc([C@@](O)(c4ccc(C(C)C)cc4)C4(C)CN(C)C4)c3)no2)CCN(C(C)=O)CC1` [Example 472], the IC50 was 0.0798 µM.

Turning to `CC(C)c1ccc(C(O)(c2cncc(OCCc3ccccn3)c2)C2(C)CN(C)C2)cc1` (centres unmarked) [Example 246, (1,3-Dimethyl-azetidin-3-yl)-(4-isopropyl-phenyl)-[5-(2-pyridin-2-yl-ethoxy)-pyridin-3-yl]-methanol], the half-inhibitory concentration (IC50) was determined as 0.0333 µM.

On to `CC(C)c1ccc([C@](O)(c2cncc(CCC(C)(O)c3ccn(C4CC4)n3)c2)C2(C)CN(C)C2)cc1` (some centres unmarked) [Example 644], for which the IC50 turned out to be 0.147 µM.

With `CN1CC(C)(C(O)(c2ccc(OC(F)(F)F)cc2)c2cnc(Oc3ccccc3)nc2)C1` (centres unmarked) [Example 263], the IC50 is 0.162 µM.

With `CN1CC(C)([C@](O)(c2ccc(C3CC3)cc2)c2cncc(-c3noc(C(C)(C)O)n3)c2)C1` [Example 568], the 50% inhibitory concentration (IC50) is 0.0976 µM.

Regarding `CC(C)c1ccc([C@](O)(c2cncc(-c3noc(CCC4CCOCC4)n3)c2)C2(C)CN(C)C2)cc1` [Example 128], the IC50 came to 0.0403 µM.

Consider `CC(C)c1ccc([C@](O)(c2cncc(-c3noc(C4(O)CCOCC4)n3)c2)C2(C)CN(C)C2)cc1` [Example 502], for which the IC50 is 0.0658 µM.

On to `CN1CC(C)(C(O)(c2ccc(C3(C(F)(F)F)CC3)cc2)c2cncc(N3CCCC3)c2)C1` (centres unmarked) [Example 159], for which the IC50 stood at 0.0916 µM.

For `CC(=O)N1CC[C@@H](Cc2nc(-c3cncc([C@@](O)(c4ccc(C(C)C)cc4)C4(C)CN(C)C4)c3)no2)C1` [Example 514], the 50% inhibitory concentration (IC50) was 0.142 µM.

Turning to `CC(C)c1ccc([C@](O)(c2cncc(-c3noc(CN4CCOC4=O)n3)c2)C2(C)CN(C)C2)cc1` [Example 489], the half-maximal inhibitory concentration (IC50) was determined as 0.135 µM.

For the molecule `COC[C@H]1CN(c2cncc([C@@](O)(c3ccc(C(C)C)cc3)C3(C)CN(C)C3)c2)CCO1` [Example 236], the half-maximal inhibitory concentration (IC50) stood at 0.21 µM.

On to `CC(C)c1ccc([C@](O)(c2cncc(OCCO)c2)C2(C)CN(C)C2)cc1` [Example 260, 2-{5-[(R)-(1,3-Dimethyl-azetidin-3-yl)-hydroxy-(4-isopropyl-phenyl)-methyl]-pyridin-3-yloxy}-ethanol], for which the 50% inhibitory concentration (IC50) came to 0.324 µM.

For `CC(C)c1ccc([C@](O)(c2cncc(-c3noc([C@H]4CCC(=O)N4)n3)c2)C2(C)CN(C)C2)cc1` [Example 360], the IC50 amounted to 0.292 µM.

Regarding `CC(C)c1ccc([C@](O)(c2cncc(-c3noc([C@H]4CC[C@H](O)CC4)n3)c2)C2(C)CN(C3CC3)C2)cc1` [Example 452], the IC50 is 0.0336 µM.

`CC(C)c1ccc([C@](O)(c2cccnc2)C2(C)CN(C)C2)cc1` [Example 293]: the IC50 was found to be 0.246 µM.

As to `CC(C)c1ccc([C@](O)(c2cncc(-c3noc(CS(C)(=O)=O)n3)c2)C2(C)CN(C)C2)cc1` [Example 103, (R)-(1,3-Dimethyl-azetidin-3-yl)-(4-isopropyl-phenyl)-[5-(5-methanesulfonylmethyl-[1,2,4]oxadiazol-3-yl)-pyridin-3-yl]-methanol], the IC50 was found to be 0.11 µM.

As to `CC(C)c1ccc([C@](O)(c2cncc(-c3nc(C4CCOCC4)no3)c2)C2(C)CN(C)C2)cc1` [Example 88], the IC50 is 0.0984 µM.

As to `CC(C)c1ccc([C@](O)(c2cncc(C#CC(O)C(C)C)c2)C2(C)CN(C)C2)cc1` (some centres unmarked) [Example 26], the IC50 worked out at 0.013 µM.

Consider `CC(C)c1ccc([C@](O)(c2cncc(CCC(C)(C)N3CCCC3=O)c2)C2(C)CN(C)C2)cc1` [Example 639], for which the half-inhibitory concentration (IC50) worked out at 0.0966 µM.

For the molecule `CC1([C@](O)(c2ccc(OC(F)(F)F)cc2)c2cncc(N3CCCC3)c2)CN(CC(F)F)C1` [Example 11, (R)-[1-(2,2-Difluoro-ethyl)-3-methyl-azetidin-3-yl]-(5-pyrrolidin-1-yl-pyridin-3-yl)-(4-trifluoromethoxy-phenyl)-methanol], the IC50 came out at 0.13 µM.

As for `CC(C)c1ccc([C@](O)(c2cncc(C#CC3(N4CCOC4=O)CC3)c2)C2(C)CN(C)C2)cc1` [Example 595], the 50% inhibitory concentration (IC50) came to 0.0932 µM.

Turning to `[2H]C([2H])([2H])C(=O)NCCc1nc(-c2cncc([C@@](O)(c3ccc(C(C)C)cc3)C3(C)CN(C)C3)c2)no1` [Example 140, (R)—N-(2-(3-(5-((1,3-dimethylazetidin-3-yl)(hydroxy)(4-isopropylphenyl)methyl)pyridin-3-yl)-1,2,4-oxadiazol-5-yl)ethyl)acetamide-2,2,2-d3], the concentration for half-maximal inhibition (IC50) stood at 0.681 µM.

Regarding `CC(C)c1ccc([C@](O)(c2cncc(-c3noc(CC(C)(C)NC(=O)C4CCOCC4)n3)c2)C2(C)CN(C)C2)cc1` [Example 466], the IC50 was 0.143 µM.

With `CC(C)c1ccc([C@](O)(c2cncc(-c3noc(C4(F)CCNCC4)n3)c2)C2(C)CN(C)C2)cc1` [Example 369], the IC50 came to 0.187 µM.

Turning to `CCN1CC(c2nc(-c3cncc([C@@](O)(c4ccc(C(C)C)cc4)C4(C)CN(C)C4)c3)no2)CC1=O` (single isomer, unassigned) [Example 511], the concentration for half-maximal inhibition (IC50) was 0.133 µM.

As to `CN1CC(C)([C@](O)(c2ccc(CC(F)(F)F)cc2)c2cncc(-c3noc(C4CCOCC4)n3)c2)C1` [Example 550], the IC50 was determined as 0.0708 µM.

As for `CC(C)c1ccc([C@](O)(c2cncc(-c3noc(COC4(C)CCOCC4)n3)c2)C2(C)CN(C)C2)cc1` [Example 132], the IC50 was determined as 0.0501 µM.

On to `CC(C)c1ccc([C@](O)(c2cncc(-c3noc(C4CCN(S(=O)(=O)C(C)C)CC4)n3)c2)C2(C)CN(C)C2)cc1` [Example 382], for which the IC50 is 0.0437 µM.

For `CC(C)c1ccc([C@](O)(c2cncc(-c3noc(CC(C)(C)NC(=O)C4CC4)n3)c2)C2(C)CN(C)C2)cc1` [Example 468], the IC50 turned out to be 0.0623 µM.

Turning to `CC(=O)N1CCC(c2nc(-c3cncc([C@@](O)(c4ccc(C5(C(F)(F)F)CC5)cc4)C4(C)CN(C)C4)c3)no2)CC1` [Example 553], the IC50 was found to be 0.0623 µM.

In the case of `CC(=O)N1CCN(c2noc(-c3cncc([C@@](O)(c4ccc(C(C)C)cc4)C4(C)CN(C)C4)c3)n2)CC1` [Example 522], the 50% inhibitory concentration (IC50) was determined as 0.119 µM.

`CC(C)c1ccc([C@](O)(c2cncc(CCC(O)C(C)C)c2)C2(C)CN(C)C2)cc1` (some centres unmarked) [Example 61]: the IC50 came out at 0.0194 µM.

In the case of `CC(C)c1ccc([C@](O)(c2cncc(C#CC(C)(O)c3cc(C(F)(F)F)ncn3)c2)C2(C)CN(C)C2)cc1` (some centres unmarked) [Example 632], the IC50 is 0.0141 µM.

For the molecule `CC(C)N1CC(C)([C@](O)(c2ccc(OC(F)(F)F)cc2)c2cncc(N3CCCC3)c2)C1` [Example 5], the IC50 is 0.0333 µM.

For the molecule `CCC(C)(C)c1ccc([C@](O)(c2cncc(-c3noc(C(C)(C)O)n3)c2)C2(C)CN(C)C2)cc1` [Example 551], the IC50 is 0.135 µM.

Consider `CC(C)c1ccc([C@](O)(c2cncc(-c3noc(CN4C(=O)CNC4=O)n3)c2)C2(C)CN(C)C2)cc1` [Example 486], for which the half-inhibitory concentration (IC50) was found to be 0.287 µM.

For `CC(C)c1ccc([C@](O)(c2cncc(CCCO)c2)C2(C)CN(C)C2)cc1` [Example 49], the concentration for half-maximal inhibition (IC50) is 0.219 µM.

Turning to `Cc1ccc(C2CC(=O)N(c3cncc([C@@](O)(c4ccc(C(C)C)cc4)C4(C)CN(C)C4)c3)C2)cn1` (some centres unmarked) [Example 673], the IC50 came out at 0.199 µM.

Consider `CC(C)c1ccc(C(O)(c2cncc(C3=CCCC3)c2)C2(C)CN(C)C2)cc1` (centres unmarked) [Example 288], for which the concentration for half-maximal inhibition (IC50) came out at 0.0339 µM.

For `CN1CC(C)([C@](O)(c2ccc(C(F)(F)C(F)(F)F)cc2)c2cncc(-c3noc(C(C)(C)O)n3)c2)C1` [Example 542], the IC50 was 0.0348 µM.

As to `Cc1cc(C(C)(O)C#Cc2cncc([C@@](O)(c3ccc(C(C)C)cc3)C3(C)CN(C)C3)c2)nc(C)n1` (single isomer, unassigned) [Example 625], the 50% inhibitory concentration (IC50) was found to be 0.107 µM.

On to `CC(C)c1ccc([C@](O)(c2cncc(-c3nc(C4CCN(C(=O)C5COCCO5)CC4)no3)c2)C2(C)CN(C)C2)cc1` (stereo partly drawn) [Example 525, [4-(5-{5-[(R)-(1,3-Dimethyl-azetidin-3-yl)-hydroxy-(4-isopropyl-phenyl)-methyl]-pyridin-3-yl}-[1,2,4]oxadiazol-3-yl)-piperidin-1-yl]-[1,4]dioxan-2-yl-methanone], for which the IC50 amounted to 0.187 µM.

`CC(C)c1ccc([C@](O)(c2cncc(-c3noc(C4(O)CCCCC4)n3)c2)C2(C)CN(C)C2)cc1` [Example 108]: the IC50 amounted to 0.021 µM.

On to `CNS(=O)(=O)N1CCC(C)(C#Cc2cncc([C@@](O)(c3ccc(C(C)C)cc3)C3(C)CN(C)C3)c2)CC1` [Example 604], for which the concentration for half-maximal inhibition (IC50) came to 0.0189 µM.

Consider `CC(=O)N1CC[C@H](c2nc(-c3cncc([C@@](O)(c4ccc(C(C)C)cc4)C4(C)CN(C)C4)c3)no2)C1` [Example 348], for which the IC50 was 0.135 µM.

In the case of `CC(C)c1ccc([C@](O)(c2cncc(N3CC(C(F)(F)F)CC3=O)c2)C2(C)CN(C)C2)cc1` (some centres unmarked) [Example 219], the concentration for half-maximal inhibition (IC50) was 0.135 µM.

Turning to `CC(C)c1ccc([C@](O)(c2cncc(C#CC3(S(=O)(=O)N(C)C)CC3)c2)C2(C)CN(C)C2)cc1` [Example 606], the concentration for half-maximal inhibition (IC50) came out at 0.0226 µM.

Regarding `CC(C)c1ccc([C@](O)(c2cncc(-c3noc([C@@H]4CCC(=O)N4)n3)c2)C2(C)CN(C)C2)cc1` [Example 359], the half-maximal inhibitory concentration (IC50) stood at 0.234 µM.

With `CC(C)c1ccc([C@](O)(c2cncc(-c3noc(C4CCNC(=O)C4)n3)c2)C2(C)CN(C)C2)cc1` (single isomer, unassigned) [Example 515], the IC50 is 0.181 µM.

The values above are taken from US12617773B2, “Azetidin-3-ylmethanol derivatives as CCR6 receptor modulators” (Idorsia Pharmaceuticals Ltd, priority 2020, dated 2026).
